{"source": "patent US20060258713A1", "about": "“Treatment of pain” (Wyeth, priority 2005, published 2006)", "tested_on": "Male Sprague-Dawley rats", "assay": "L5 spinal nerve ligation (SNL) tactile allodynia model, von Frey thresholds", "assay_type": "in vivo, rat", "conditions": "0.3, 1 or 3 mg/kg i.p., thresholds up to 60, 180 and 300 minutes after dosing, reversal of tactile allodynia, FIG. 1", "description": "Compound 1, (7-(2,6-dichlorophenyl)-5-fluoro-2,3-dihydrobenzofuran-2-yl)methanamine, was obtained from Wyeth compound repository and gabapentin was purchased from Toronto Research Chemicals (Ontario, Canada) and […]. Compound 1 was dissolved in sterile saline and gabapentin was suspended in 2% Tween 80 in 0.5% methylcellulose and sterile water. All compounds were administered intraperitoneally (i.p.).\nMale Sprague-Dawley rats (125-150 g, Harlan; Indianapolis, Ind.) were individually housed on bedding. For all studies animals were maintained in climate-controlled rooms on a 12-hour light/dark cycle (lights on at 0630) with food and water available ad libitum. […]\nAssessment of Tactile Allodynia (Tactile Sensitivity): Tactile thresholds were assessed using a series of calibrated von Frey monofilaments (Stoelting; Wood Dale, Ill.). The threshold that produced a 50% likelihood of a withdrawal was determined using the up-down method, as previously described (Chaplan et al., 1994).\nAnimals were placed in elevated wire cages and allowed 45-60 minutes to acclimate to the testing room. […] The lowest force that evoked a brisk withdrawal response to the stimuli determined the pain threshold. Tactile thresholds were determined on the day prior to surgery and rats with baseline thresholds <10 g force were excluded from studies. […]"}
{"smiles": "NCC1Cc2cc(F)cc(-c3c(Cl)cccc3Cl)c2O1", "note": "(stereo not shown) [Compound 1, (7-(2,6-dichlorophenyl)-5-fluoro-2,3-dihydrobenzofuran-2-yl)methanamine]", "values": [{"measurement": "effectiveness in the tactile allodynia model", "result": "effectiveness"}]}
